Test results from PubChem BioAssay AID330 (DTP/NCI, 2004).
Several values for one entry are separate records, joined by “and”; a condition that tells them apart may be missing. Equal values may be shown once. Inconclusive results and toxic doses are left out.

System: P388 leukemia ip, CD2F1 mice, survival T/C
Experiment: NCI In Vivo Anticancer Drug Screen. Data for tumor model P388 Leukemia (intraperitoneal) in CD2F1 (CDF1) mice
Details: endpoint: median survival time, higher = longer survival
Summary of the method: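 Mice carrying the transplanted tumor received test compound or vehicle. Survival was recorded in each group, and the value is the treated-group measurement divided by that of the vehicle-treated control group.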

[1] = dose: 50.0 mg/kg/injection, schedule: Q01DX005 (ip), vehicle: Klucel (hydroxypropylcellulose) (HPC)
[2] = dose: 100.0 mg/kg/injection, schedule: Q01DX005 (ip), vehicle: Klucel (hydroxypropylcellulose) (HPC)
[3] = dose: 200.0 mg/kg/injection, schedule: Q01DX005 (ip), vehicle: Klucel (hydroxypropylcellulose) (HPC)
[4] = dose: 50.0 mg/kg/injection, schedule: Q01DX009 (ip), vehicle: saline with Tween-80
[5] = dose: 100.0 mg/kg/injection, schedule: Q01DX009 (ip), vehicle: saline with Tween-80
[6] = dose: 200.0 mg/kg/injection, schedule: Q01DX009 (ip), vehicle: saline with Tween-80
[7] = dose: 100.0 mg/kg/injection, schedule: Q01DX001 (ip), vehicle: saline with Tween-80
[8] = dose: 200.0 mg/kg/injection, schedule: Q01DX001 (ip), vehicle: saline with Tween-80
[9] = dose: 400.0 mg/kg/injection, schedule: Q01DX001 (ip), vehicle: saline with Tween-80
[10] = dose: 60.0 mg/kg/injection, schedule: Q01DX005 (ip), vehicle: Klucel (hydroxypropylcellulose) (HPC)
[11] = dose: 120.0 mg/kg/injection, schedule: Q01DX005 (ip), vehicle: Klucel (hydroxypropylcellulose) (HPC)
[12] = dose: 240.0 mg/kg/injection, schedule: Q01DX005 (ip), vehicle: Klucel (hydroxypropylcellulose) (HPC)
[13] = dose: 50.0 mg/kg/injection, schedule: Q01DX005 (ip), vehicle: saline
[14] = dose: 50.0 mg/kg/injection, schedule: Q01DX009 (ip), vehicle: suspension in saline
[15] = dose: 100.0 mg/kg/injection, schedule: Q01DX009 (ip), vehicle: suspension in saline
[16] = dose: 200.0 mg/kg/injection, schedule: Q01DX009 (ip), vehicle: suspension in saline
[17] = dose: 12.5 mg/kg/injection, schedule: Q01DX005 (ip), vehicle: saline
[18] = dose: 25.0 mg/kg/injection, schedule: Q01DX005 (ip), vehicle: saline
[19] = dose: 50.0 mg/kg/injection, schedule: Q01DX005 (ip), vehicle: saline with Tween-80
[20] = dose: 50.0 mg/kg/injection, schedule: Q01DX009 (ip), vehicle: Klucel (hydroxypropylcellulose) (HPC)
[21] = dose: 100.0 mg/kg/injection, schedule: Q01DX009 (ip), vehicle: Klucel (hydroxypropylcellulose) (HPC)
[22] = dose: 200.0 mg/kg/injection, schedule: Q01DX009 (ip), vehicle: Klucel (hydroxypropylcellulose) (HPC)
[23] = dose: 100.0 mg/kg/injection, schedule: Q01DX005 (ip), vehicle: saline with Tween-80

With `Cn1c(C(=O)N/N=C/C23OC(C)(C)OC2OCC2OC(C)(C)OC23)cc2cc(OCc3ccccc3)ccc21` (centres undefined) the T/C [1] was 92 % of control, the T/C [2] was 101 % of control and the T/C [3] was 90 % of control.

With `Nc1nc(N)nc(Cc2ccccc2)n1` the T/C [4] was 104 % of control, the T/C [5] was 93 % of control and the T/C [6] was 95 % of control.

`CCCCCCCCCOCC(=O)OC` was tested, and the T/C [4] was 105 % of control, the T/C [5] was 106 % of control and the T/C [6] was 101 % of control.

With `CCn1c(C)cc(=NC(=O)c2ccccc2O)n1-c1ccccc1` the T/C [7] was 103 % of control, the T/C [8] was 106 % of control and the T/C [9] was 102 % of control.

`CN(C)C(=O)c1ccccc1SC(=S)NCc1ccccc1` was tested, and the T/C [10] was 102 % of control, the T/C [11] was 102 % of control and the T/C [12] was 102 % of control.

In the case of `COC1C=CCCC1` (centres undefined), the T/C (dose: 100.0 mg/kg/injection, schedule: Q01DX001 (ip), vehicle: Klucel (hydroxypropylcellulose) (HPC)) is reported as 108 % of control, the T/C (dose: 200.0 mg/kg/injection, schedule: Q01DX001 (ip), vehicle: Klucel (hydroxypropylcellulose) (HPC)) is reported as 117 % of control and the T/C (dose: 400.0 mg/kg/injection, schedule: Q01DX001 (ip), vehicle: Klucel (hydroxypropylcellulose) (HPC)) is reported as 106 % of control.

`O=C(O)CCC(CCC(=O)O)(C(=O)O)C(=O)O` was tested, and the T/C (dose: 60.0 mg/kg/injection, schedule: Q01DX005 (ip), vehicle: saline) was 96 % of control and the T/C (dose: 120.0 mg/kg/injection, schedule: Q01DX005 (ip), vehicle: saline) was 99 % of control.

In the case of `CC(O)C(NC(=O)c1ccc([N+](=O)[O-])cc1)C(=O)O` (centres undefined), the T/C [13] is reported as 105 % of control, the T/C (dose: 100.0 mg/kg/injection, schedule: Q01DX005 (ip), vehicle: saline) is reported as 102 % of control and the T/C (dose: 200.0 mg/kg/injection, schedule: Q01DX005 (ip), vehicle: saline) is reported as 91 % of control.

With `CN1C(=O)C2C=CC1C1C(=O)N(c3ccc([N+](=O)[O-])cc3)C(=O)C21` (centres undefined) the T/C (dose: 100.0 mg/kg/injection, schedule: Q04DX002 (ip), vehicle: saline with Tween-80) was 103 % of control, the T/C (dose: 200.0 mg/kg/injection, schedule: Q04DX002 (ip), vehicle: saline with Tween-80) was 95 % of control and the T/C (dose: 400.0 mg/kg/injection, schedule: Q04DX002 (ip), vehicle: saline with Tween-80) was 95 % of control.

With `CC1(C)CC(OC(=O)CCC(=O)OC2CC(C)(C)N(O)C(C)(C)C2)CC(C)(C)N1O` the T/C [14] was 100 % of control, the T/C [15] was 100 % of control and the T/C [16] was 96 % of control.

In the case of `C=CCN1CCC23c4c5ccc(O)c4OC2C(=NN=C2CCC4(O)C6Cc7ccc(O)c8c7C4(CCN6CC=C)C2O8)CCC3(O)C1C5` (centres undefined), the T/C (dose: 15.0 mg/kg/injection, schedule: Q01DX005 (ip), vehicle: saline with Tween-80) is reported as 92 % of control, the T/C (dose: 30.0 mg/kg/injection, schedule: Q01DX005 (ip), vehicle: saline with Tween-80) is reported as 90 % of control and the T/C (dose: 60.0 mg/kg/injection, schedule: Q01DX005 (ip), vehicle: saline with Tween-80) is reported as 100 % of control and 101 % of control.

In the case of `NC(CCCCNC(=O)OCCCCCOC(=O)NCCCCC(N)C(=O)O)C(=O)O` (centres undefined), the T/C [14] is reported as 95 % of control, the T/C [15] is reported as 106 % of control and the T/C [16] is reported as 104 % of control.

With `C[N+]1(C[Si](C)(C)c2ccccc2)CCCCC1` the T/C [17] was 104 % of control, the T/C [18] was 100 % of control and the T/C [13] was 101 % of control and 105 % of control.

In the case of `CN(C)c1ccc(C(=C(c2ccc(N(C)C)cc2)c2ccc(N(C)C)cc2)c2ccc(N(C)C)cc2)cc1`, the T/C (dose: 12.5 mg/kg/injection, schedule: Q01DX005 (ip), vehicle: saline with Tween-80) is reported as 96 % of control, the T/C (dose: 25.0 mg/kg/injection, schedule: Q01DX005 (ip), vehicle: saline with Tween-80) is reported as 92 % of control and the T/C [19] is reported as 89 % of control.

In the case of `O=C(NC1(C(=O)O)CC1c1ccccc1)c1ccccc1` (centres undefined), the T/C [10] is reported as 100 % of control, the T/C [11] is reported as 94 % of control and the T/C [12] is reported as 100 % of control.

For `Cc1ccc(S(=O)(=O)N=P(c2ccccc2)(c2ccccc2)c2ccccc2)cc1`, the T/C [5] was 91 % of control and the T/C [6] was 95 % of control.

In the case of `Cc1cc(=O)n2c(nc3cc([N+](=O)[O-])ccc32)s1`, the T/C [20] is reported as 98 % of control, the T/C [21] is reported as 99 % of control and the T/C [22] is reported as 98 % of control.

With `Cc1nn(C(=O)c2cccnc2)c(-c2ccccc2)c1N=Nc1ccc(C(=O)O)cc1` the T/C [19] was 93 % of control and the T/C [23] was 93 % of control.

`COC(=O)Cn1/c(=N\N=C\c2ccc(OC)cc2)sc2ccccc21` was tested, and the T/C [7] was 101 % of control, the T/C [8] was 101 % of control and the T/C [9] was 92 % of control.

For `CCCCOP(=S)(N1CC1)N1CC1`, the T/C (dose: 6.25 mg/kg/injection, schedule: Q04DX003 (ip), vehicle: saline with Tween-80) was 154 % of control, the T/C (dose: 12.5 mg/kg/injection, schedule: Q04DX003 (ip), vehicle: saline with Tween-80) was 195 % of control and the T/C (dose: 25.0 mg/kg/injection, schedule: Q04DX003 (ip), vehicle: saline with Tween-80) was 236 % of control. The T/C (dose: 44.0 mg/kg/injection, schedule: Q04DX003 (ip), vehicle: saline with Tween-80) was 204 % of control, the T/C (dose: 50.0 mg/kg/injection, schedule: Q04DX003 (ip), vehicle: saline with Tween-80) was 259 % of control and the T/C (dose: 66.0 mg/kg/injection, schedule: Q04DX003 (ip), vehicle: saline with Tween-80) was 200 % of control. For the same compound, the T/C (dose: 100.0 mg/kg/injection, schedule: Q04DX003 (ip), vehicle: saline with Tween-80) was 179 % of control and the T/C (dose: 150.0 mg/kg/injection, schedule: Q04DX003 (ip), vehicle: saline with Tween-80) was 100 % of control.

For `O=C(CC1(O)C(=O)Nc2ccccc21)c1cccc([N+](=O)[O-])c1` (centres undefined), the T/C [10] was 97 % of control, the T/C [11] was 103 % of control and the T/C [12] was 99 % of control.

For `Nc1nnc(-c2cc(=O)c3cc(Cl)ccc3o2)s1`, the T/C [19] was 97 % of control, the T/C [23] was 100 % of control and the T/C (dose: 200.0 mg/kg/injection, schedule: Q01DX005 (ip), vehicle: saline with Tween-80) was 93 % of control.

In the case of `Cc1ccc(S(=O)(=O)/N=C2\C=CC=C\C2=C2\Sc3ccccc3N2C)cc1`, the T/C (dose: 100.0 mg/kg/injection, schedule: Q04DX003 (ip), vehicle: saline) is reported as 102 % of control, the T/C (dose: 200.0 mg/kg/injection, schedule: Q04DX003 (ip), vehicle: saline) is reported as 99 % of control and the T/C (dose: 400.0 mg/kg/injection, schedule: Q04DX003 (ip), vehicle: saline) is reported as 95 % of control.

`CCC(CC)C1NC(C(=O)O)CS1` (centres undefined) was tested, and the T/C [14] was 93 % of control, the T/C [15] was 96 % of control and the T/C [16] was 92 % of control.

With `Cc1nc(Nc2c(C)cccc2C)c2c(-c3ccccc3)c[nH]c2n1` the T/C [1] was 99 % of control, the T/C [2] was 94 % of control and the T/C [3] was 92 % of control.

In the case of `CCCCCCCCCCCC1NC(=S)NC(=O)C1C#N` (centres undefined), the T/C [20] is reported as 95 % of control, the T/C [21] is reported as 93 % of control and the T/C [22] is reported as 92 % of control.

For `COc1cc2nc(C)[n+]3nc([O-])ccc3c2cc1OC`, the T/C (dose: 60.0 mg/kg/injection, schedule: Q01DX005 (ip), vehicle: suspension in saline) was 112 % of control, the T/C (dose: 120.0 mg/kg/injection, schedule: Q01DX005 (ip), vehicle: suspension in saline) was 104 % of control and the T/C (dose: 240.0 mg/kg/injection, schedule: Q01DX005 (ip), vehicle: suspension in saline) was 108 % of control.

For `C=C1C(=O)C23C(OC(=O)/C=C/C)C1CCC2C12COC3(O)C(O)C1C(C)(C)CCC2O` (centres undefined), the T/C (dose: 3.75 mg/kg/injection, schedule: Q01DX009 (ip), vehicle: saline with Tween-80) was 103 % of control, the T/C (dose: 7.5 mg/kg/injection, schedule: Q01DX009 (ip), vehicle: saline with Tween-80) was 108 % of control and the T/C (dose: 15.0 mg/kg/injection, schedule: Q01DX009 (ip), vehicle: saline with Tween-80) was 112 % of control.

With `O=[N+]([O-])C1=NOCC1` the T/C (dose: 50.0 mg/kg/injection, schedule: Q01DX005 (ip), vehicle: suspension in saline) was 95 % of control and the T/C (dose: 100.0 mg/kg/injection, schedule: Q01DX005 (ip), vehicle: suspension in saline) was 95 % of control.

With `OC(CC1CC2(CCN1)OCCO2)c1ccccc1` (centres undefined) the T/C [17] was 105 % of control, the T/C [18] was 105 % of control and the T/C [13] was 108 % of control.

With `OCc1cccc2c1C(O)c1ccccc1-2` (centres undefined) the T/C [1] was 100 % of control, the T/C [2] was 104 % of control and the T/C [3] was 100 % of control.
